Four molecules from ChEMBL document CHEMBL5291721, “A preclinical secondary pharmacology resource illuminates target-adverse drug reaction associations of marketed drugs” (Nat Commun, 2023) can be followed below.

Some targets named below: Motilin receptor (Homo sapiens, UniProt O43193); D(3) dopamine receptor (Homo sapiens, UniProt P35462); Melanocortin receptor 3 (Homo sapiens, UniProt P41968).
Experiment [1] addresses Sodium-dependent noradrenaline transporter (Homo sapiens, UniProt P23975).
The target in experiment [2] is T1, 5-hydroxytryptamine receptor 1A (Homo sapiens, UniProt P08908).
T1 sequence (P08908 whole entry): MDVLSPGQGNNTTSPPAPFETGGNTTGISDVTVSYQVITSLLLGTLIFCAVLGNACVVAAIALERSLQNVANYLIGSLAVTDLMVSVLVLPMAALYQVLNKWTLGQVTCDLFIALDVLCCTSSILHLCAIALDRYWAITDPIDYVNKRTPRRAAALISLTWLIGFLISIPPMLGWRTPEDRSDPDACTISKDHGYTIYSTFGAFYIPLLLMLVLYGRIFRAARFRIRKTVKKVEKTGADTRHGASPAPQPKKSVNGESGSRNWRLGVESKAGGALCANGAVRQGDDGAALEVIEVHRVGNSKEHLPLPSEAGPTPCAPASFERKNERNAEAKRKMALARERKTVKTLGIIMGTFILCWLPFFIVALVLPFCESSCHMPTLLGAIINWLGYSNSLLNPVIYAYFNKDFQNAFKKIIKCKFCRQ
In kind it is functional, cell-based.

In experiment [3] the target is Neuronal acetylcholine receptor subunit alpha-4 (Homo sapiens, UniProt P43681).
Experiment [4] addresses 3',5'-cyclic-AMP phosphodiesterase 4D (Homo sapiens, UniProt Q08499). It counts as functional.
The next experiment addresses T2, Adenosine receptor A3 (Homo sapiens, UniProt P0DMS8).
T2 sequence (P0DMS8 whole entry): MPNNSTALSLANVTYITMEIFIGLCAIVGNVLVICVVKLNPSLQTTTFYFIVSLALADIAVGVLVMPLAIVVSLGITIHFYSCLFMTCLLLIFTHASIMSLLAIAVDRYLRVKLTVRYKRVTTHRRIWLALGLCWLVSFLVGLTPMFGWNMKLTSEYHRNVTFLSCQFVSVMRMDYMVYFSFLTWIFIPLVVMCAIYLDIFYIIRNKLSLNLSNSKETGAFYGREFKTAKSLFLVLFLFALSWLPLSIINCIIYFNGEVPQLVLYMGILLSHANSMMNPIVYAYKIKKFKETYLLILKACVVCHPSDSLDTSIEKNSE

The target in experiment [5] is 5-hydroxytryptamine receptor 2B (Homo sapiens, UniProt P41595). In kind it is functional, cell-based.
Experiment [6] concerns the target T3, Equilibrative nucleoside transporter 1 (Homo sapiens, UniProt Q99808).
T3 sequence (Q99808 whole entry): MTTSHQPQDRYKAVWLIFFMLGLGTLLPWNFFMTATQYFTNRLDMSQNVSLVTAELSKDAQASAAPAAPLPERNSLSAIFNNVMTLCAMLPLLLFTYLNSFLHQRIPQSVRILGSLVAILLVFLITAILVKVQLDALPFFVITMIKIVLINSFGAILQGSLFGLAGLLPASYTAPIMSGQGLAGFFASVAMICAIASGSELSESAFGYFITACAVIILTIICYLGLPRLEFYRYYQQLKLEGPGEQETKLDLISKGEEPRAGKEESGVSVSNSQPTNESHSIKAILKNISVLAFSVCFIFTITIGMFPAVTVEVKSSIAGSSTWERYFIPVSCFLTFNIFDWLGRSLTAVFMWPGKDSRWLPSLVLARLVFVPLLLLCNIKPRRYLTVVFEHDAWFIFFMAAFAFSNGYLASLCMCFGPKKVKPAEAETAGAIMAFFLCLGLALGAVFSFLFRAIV

Experiment [7] addresses T4, Type-1 angiotensin II receptor (Homo sapiens, UniProt P30556).
T4 sequence (P30556 whole entry): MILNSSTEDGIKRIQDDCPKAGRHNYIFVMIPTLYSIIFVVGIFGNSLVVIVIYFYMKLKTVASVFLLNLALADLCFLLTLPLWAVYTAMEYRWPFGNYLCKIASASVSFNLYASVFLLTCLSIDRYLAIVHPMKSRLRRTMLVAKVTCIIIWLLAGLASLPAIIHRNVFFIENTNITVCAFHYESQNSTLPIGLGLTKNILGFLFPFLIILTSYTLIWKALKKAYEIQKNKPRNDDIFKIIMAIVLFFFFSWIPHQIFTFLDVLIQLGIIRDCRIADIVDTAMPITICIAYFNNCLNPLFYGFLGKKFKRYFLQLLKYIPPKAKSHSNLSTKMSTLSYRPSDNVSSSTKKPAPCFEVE

Experiment [8] has as its target Growth hormone secretagogue receptor type 1 (Homo sapiens, UniProt Q92847).
In a further experiment the target is T5, Adenosine receptor A1 (Homo sapiens, UniProt P30542).
T5 sequence (P30542 whole entry): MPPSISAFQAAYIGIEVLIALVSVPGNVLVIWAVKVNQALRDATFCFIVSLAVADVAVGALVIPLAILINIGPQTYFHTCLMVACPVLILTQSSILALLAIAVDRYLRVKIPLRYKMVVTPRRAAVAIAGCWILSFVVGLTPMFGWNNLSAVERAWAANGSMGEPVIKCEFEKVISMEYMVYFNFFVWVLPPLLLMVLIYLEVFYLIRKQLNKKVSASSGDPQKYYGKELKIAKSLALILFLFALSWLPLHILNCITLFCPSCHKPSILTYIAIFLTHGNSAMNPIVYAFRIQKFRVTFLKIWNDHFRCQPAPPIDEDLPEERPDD

The target of experiment [9] is T6, 5-hydroxytryptamine receptor 2C (Homo sapiens, UniProt P28335).
T6 sequence (P28335 whole entry): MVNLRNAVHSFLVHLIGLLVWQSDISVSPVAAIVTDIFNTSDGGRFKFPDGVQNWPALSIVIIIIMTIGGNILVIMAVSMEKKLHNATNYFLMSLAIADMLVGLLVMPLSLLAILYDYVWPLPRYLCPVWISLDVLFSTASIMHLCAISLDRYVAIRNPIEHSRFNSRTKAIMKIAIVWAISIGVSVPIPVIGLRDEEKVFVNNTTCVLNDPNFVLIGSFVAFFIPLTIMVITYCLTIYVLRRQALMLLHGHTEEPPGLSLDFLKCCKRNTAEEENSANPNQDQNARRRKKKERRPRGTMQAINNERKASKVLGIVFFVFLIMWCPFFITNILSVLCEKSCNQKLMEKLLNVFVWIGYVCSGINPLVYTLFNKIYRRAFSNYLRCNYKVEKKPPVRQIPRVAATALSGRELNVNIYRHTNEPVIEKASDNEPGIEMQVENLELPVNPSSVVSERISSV
Further: assay procedure not described here.

Chain of Growth hormone secretagogue receptor type 1 (Q92847 whole entry): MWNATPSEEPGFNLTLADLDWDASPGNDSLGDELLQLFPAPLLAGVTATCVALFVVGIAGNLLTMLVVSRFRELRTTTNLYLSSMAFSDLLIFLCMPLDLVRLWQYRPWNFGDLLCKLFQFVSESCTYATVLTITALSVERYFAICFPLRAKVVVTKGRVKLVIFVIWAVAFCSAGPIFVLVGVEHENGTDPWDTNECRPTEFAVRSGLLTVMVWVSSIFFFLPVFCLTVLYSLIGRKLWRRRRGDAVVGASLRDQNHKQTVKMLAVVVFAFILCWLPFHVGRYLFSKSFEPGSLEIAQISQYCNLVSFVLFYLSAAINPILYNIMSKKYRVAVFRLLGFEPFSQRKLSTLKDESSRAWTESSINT
Chain of 3',5'-cyclic-AMP phosphodiesterase 4D (Q08499 whole entry): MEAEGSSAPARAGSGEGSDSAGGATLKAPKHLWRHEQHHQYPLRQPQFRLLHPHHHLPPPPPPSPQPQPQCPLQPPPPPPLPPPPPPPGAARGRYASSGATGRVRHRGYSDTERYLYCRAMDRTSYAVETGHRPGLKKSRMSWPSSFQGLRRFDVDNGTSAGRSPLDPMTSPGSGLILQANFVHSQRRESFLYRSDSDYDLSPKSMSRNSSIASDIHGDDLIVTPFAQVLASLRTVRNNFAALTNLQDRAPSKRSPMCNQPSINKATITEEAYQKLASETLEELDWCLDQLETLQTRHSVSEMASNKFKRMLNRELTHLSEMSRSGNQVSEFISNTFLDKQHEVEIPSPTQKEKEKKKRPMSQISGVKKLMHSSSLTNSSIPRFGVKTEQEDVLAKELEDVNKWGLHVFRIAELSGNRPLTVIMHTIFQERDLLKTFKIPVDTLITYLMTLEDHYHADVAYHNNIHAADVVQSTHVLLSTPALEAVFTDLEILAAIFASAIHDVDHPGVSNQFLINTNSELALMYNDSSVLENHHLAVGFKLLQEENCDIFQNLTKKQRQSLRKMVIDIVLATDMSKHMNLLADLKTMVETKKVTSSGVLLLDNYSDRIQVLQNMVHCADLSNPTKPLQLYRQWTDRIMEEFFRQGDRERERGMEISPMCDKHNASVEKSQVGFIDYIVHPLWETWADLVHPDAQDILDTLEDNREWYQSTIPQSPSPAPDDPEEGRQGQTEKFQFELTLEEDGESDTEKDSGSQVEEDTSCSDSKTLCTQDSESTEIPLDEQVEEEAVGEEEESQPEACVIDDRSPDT
Chain of Melanocortin receptor 3 (P41968 whole entry): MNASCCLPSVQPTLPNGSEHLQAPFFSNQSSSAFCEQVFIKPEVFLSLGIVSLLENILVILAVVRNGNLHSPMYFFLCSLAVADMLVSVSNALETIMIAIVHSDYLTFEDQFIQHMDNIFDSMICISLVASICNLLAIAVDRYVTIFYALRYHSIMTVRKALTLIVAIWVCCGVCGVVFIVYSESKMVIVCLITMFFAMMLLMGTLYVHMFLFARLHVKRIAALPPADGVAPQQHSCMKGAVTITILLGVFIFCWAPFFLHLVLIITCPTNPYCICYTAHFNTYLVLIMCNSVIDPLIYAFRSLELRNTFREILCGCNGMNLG
Chain of Neuronal acetylcholine receptor subunit alpha-4 (P43681 whole entry): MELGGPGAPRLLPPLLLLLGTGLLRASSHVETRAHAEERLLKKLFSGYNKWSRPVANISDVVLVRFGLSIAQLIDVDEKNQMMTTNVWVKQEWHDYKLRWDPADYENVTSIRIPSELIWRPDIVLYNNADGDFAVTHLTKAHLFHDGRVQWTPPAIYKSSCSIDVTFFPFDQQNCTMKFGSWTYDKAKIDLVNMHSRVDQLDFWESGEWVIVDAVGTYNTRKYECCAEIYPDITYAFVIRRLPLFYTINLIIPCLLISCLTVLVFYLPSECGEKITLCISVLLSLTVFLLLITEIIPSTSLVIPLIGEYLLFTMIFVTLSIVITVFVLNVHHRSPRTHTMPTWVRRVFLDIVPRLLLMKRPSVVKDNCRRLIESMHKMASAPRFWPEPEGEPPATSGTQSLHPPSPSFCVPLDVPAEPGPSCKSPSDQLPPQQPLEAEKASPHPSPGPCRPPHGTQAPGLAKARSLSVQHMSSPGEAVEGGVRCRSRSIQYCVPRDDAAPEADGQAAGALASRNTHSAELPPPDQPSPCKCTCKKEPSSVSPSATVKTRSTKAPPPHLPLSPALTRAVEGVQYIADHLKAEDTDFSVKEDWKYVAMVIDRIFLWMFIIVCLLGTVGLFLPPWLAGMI
Chain of D(3) dopamine receptor (P35462 whole entry): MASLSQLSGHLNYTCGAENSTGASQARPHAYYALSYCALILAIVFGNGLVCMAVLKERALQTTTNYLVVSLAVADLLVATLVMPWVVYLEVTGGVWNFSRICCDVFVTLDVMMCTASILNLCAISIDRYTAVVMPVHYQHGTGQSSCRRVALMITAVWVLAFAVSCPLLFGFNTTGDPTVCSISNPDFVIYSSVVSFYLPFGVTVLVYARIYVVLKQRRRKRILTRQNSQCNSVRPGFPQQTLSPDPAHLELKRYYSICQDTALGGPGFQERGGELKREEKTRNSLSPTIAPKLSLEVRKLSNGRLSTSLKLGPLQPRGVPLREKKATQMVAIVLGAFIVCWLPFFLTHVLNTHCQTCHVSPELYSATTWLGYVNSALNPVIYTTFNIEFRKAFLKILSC
Chain of Sodium-dependent noradrenaline transporter (P23975 whole entry): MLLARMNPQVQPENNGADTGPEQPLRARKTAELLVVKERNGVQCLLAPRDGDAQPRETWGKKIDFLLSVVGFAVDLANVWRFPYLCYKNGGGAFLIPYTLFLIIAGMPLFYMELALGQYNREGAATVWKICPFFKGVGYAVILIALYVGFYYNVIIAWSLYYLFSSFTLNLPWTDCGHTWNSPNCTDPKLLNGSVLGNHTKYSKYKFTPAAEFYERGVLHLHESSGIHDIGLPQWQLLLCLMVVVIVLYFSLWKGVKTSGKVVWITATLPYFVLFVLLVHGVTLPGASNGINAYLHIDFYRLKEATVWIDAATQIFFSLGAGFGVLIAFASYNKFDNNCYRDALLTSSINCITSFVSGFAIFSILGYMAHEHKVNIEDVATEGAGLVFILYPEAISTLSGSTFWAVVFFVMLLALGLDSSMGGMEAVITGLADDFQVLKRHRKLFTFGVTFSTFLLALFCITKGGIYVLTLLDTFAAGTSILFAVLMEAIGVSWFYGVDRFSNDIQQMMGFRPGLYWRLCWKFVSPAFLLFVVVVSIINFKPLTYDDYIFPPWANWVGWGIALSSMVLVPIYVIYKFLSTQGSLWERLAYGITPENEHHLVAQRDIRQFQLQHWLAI
Chain of 5-hydroxytryptamine receptor 2B (P41595 whole entry): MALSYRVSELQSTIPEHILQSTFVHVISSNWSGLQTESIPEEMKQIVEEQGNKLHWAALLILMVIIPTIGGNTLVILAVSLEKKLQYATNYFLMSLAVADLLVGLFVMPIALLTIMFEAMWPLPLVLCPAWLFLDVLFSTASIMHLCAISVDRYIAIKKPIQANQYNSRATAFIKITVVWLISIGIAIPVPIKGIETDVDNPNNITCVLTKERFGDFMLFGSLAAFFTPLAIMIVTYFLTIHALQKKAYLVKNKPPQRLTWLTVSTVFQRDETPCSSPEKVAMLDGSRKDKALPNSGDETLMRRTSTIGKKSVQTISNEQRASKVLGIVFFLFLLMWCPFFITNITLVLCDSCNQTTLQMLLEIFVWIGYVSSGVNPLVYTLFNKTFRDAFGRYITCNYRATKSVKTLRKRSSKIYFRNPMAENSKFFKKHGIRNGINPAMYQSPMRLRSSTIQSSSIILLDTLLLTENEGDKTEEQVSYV
Chain of Motilin receptor (O43193 whole entry): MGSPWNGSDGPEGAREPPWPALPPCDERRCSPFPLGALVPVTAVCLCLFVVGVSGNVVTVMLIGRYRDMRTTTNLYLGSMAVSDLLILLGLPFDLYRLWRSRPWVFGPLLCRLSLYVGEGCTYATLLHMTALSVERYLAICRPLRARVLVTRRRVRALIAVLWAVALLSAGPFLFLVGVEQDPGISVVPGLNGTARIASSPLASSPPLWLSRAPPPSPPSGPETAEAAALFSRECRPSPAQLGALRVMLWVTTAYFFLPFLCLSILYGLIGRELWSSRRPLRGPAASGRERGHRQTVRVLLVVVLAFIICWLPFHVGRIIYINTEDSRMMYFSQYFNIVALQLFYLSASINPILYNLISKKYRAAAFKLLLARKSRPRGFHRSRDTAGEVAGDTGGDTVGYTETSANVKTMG

Take `C[C@H](CCC(=O)O)[C@H]1CC[C@H]2[C@@H]3[C@H](O)C[C@@H]4C[C@H](O)CC[C@]4(C)[C@H]3CC[C@]12C` [CHENODIOL]: the AC50 (at Motilin receptor; in experiment [1]; in experiment [2]; in experiment [3]; in experiment [4]; at Adenosine receptor A3) was over 30 µM in each case. Also, the AC50 (in experiment [5]; in [6]; in [7]; in experiment [8]; at Adenosine receptor A1; in experiment [9]) was over 30 µM each time. Besides, the AC50 on D(3) dopamine receptor and at Melanocortin receptor 3 was over 30 µM in each case.
In the case of `O=C(c1ccccc1)c1ccc2n1CCC2C(=O)O` (stereo unspecified) [KETOROLAC], the AC50 (usually the concentration at which the activity in the assay is half-maximal) is over 10 µM on Motilin receptor; over 10 µM in [1]; over 30 µM in [2]; over 10 µM in experiment [3]; over 30 µM in [4]; over 10 µM on Adenosine receptor A3. The AC50 in [5] was over 30 µM; in [6], over 10 µM; in experiment [7], over 10 µM; in experiment [8], over 10 µM; at Adenosine receptor A1, over 10 µM; in experiment [9], over 30 µM. In addition, the values for the AC50 on D(3) dopamine receptor and on Melanocortin receptor 3 were over 30 µM and over 10 µM, respectively.
Take `C[C@H](Cn1cnc2c(N)ncnc21)OCP(=O)(O)O` [TENOFOVIR ANHYDROUS]: the AC50 (on Motilin receptor; in [1]; in experiment [2]; in [3]; in [4]; at Adenosine receptor A3) was over 30 µM in each case. Also, the half-maximal activity concentration (AC50) (in experiment [5]; in experiment [6]; in experiment [7]; in experiment [8]; on Adenosine receptor A1; in experiment [9]) was over 30 µM in each case. For the same molecule, the AC50 at D(3) dopamine receptor and on Melanocortin receptor 3 was over 30 µM each time.
Regarding `Nc1nnc(-c2cccc(Cl)c2Cl)c(N)n1` [LAMOTRIGINE], the concentration at half-maximal activity (AC50) on Motilin receptor is over 10 µM; in experiment [1], over 10 µM; in [2], over 10 µM; in experiment [3], over 10 µM; in [4], over 30 µM; on Adenosine receptor A3 it was over 30 µM. Besides, the AC50 in experiment [5] was over 10 µM; in experiment [6], over 30 µM; in experiment [7] it was over 30 µM; in experiment [8], over 30 µM; on Adenosine receptor A1, over 30 µM; in experiment [9], over 30 µM. Moreover, the AC50 at D(3) dopamine receptor is over 10 µM; on Melanocortin receptor 3, over 30 µM.
